Data on 101 molecules can be found in ChEMBL document CHEMBL3507680, “University of Dundee, Gates Library screen for HepG2 cell viability”.

The series is described as follows: Human HepG2 cell viability assay in 384 well format. Type of series: toxicity, cell-based. More on the design: dose 125 nL, time 70.5 hour; cytotoxicity at 70.5 h: concentration not given beside the values. The note with it: HepG2 cells, read-out: Inhibition.
Turning to `CCNc1nnc(CCn2nc(C)c(Br)c2C)s1`, the cytotoxicity at 70.5 h was -7.99%. `CCC1(CC)C(=O)NC(=O)N=C1Nc1ccc(C)cc1`: the cytotoxicity at 70.5 h is -10.3%. As to `CCn1cc(NS(=O)(=O)c2ccc(Br)s2)c(C(N)=O)n1`, the cytotoxicity at 70.5 h came to 21.8%. In the case of `CC1CCC(NC(=O)c2nn(C)cc2Br)CC1` (stereo unspecified) it was -7.64%; in that of `CCn1cc(S(=O)(=O)N2CCN(S(=O)(=O)c3ccc(Br)s3)CC2)c(C)n1`, -9.33%; in that of `CS(=O)(=O)Nc1ccn(Cc2cccc(Cl)c2)n1`, -4.43%.

For `Cc1nn(CCCNC(=O)C2CCN(S(C)(=O)=O)CC2)c(Cl)c1Cl`, the cytotoxicity at 70.5 h was -7.28%.

On to `O=C1[C@H]2CCCC[C@H]2C(=O)N1c1cnn(Cc2cccc(F)c2)c1`, for which the cytotoxicity at 70.5 h came out at 1.76%.

Take `O=C(O)CCn1nc(C(F)(F)F)c(Cl)c1C1CC1`: the cytotoxicity at 70.5 h is -19.2%. In the case of `Cc1nn(-c2ccccc2)c(C)c1CN1CCNCC1` it was 27.3%; in that of `O=C(O)c1ccn(COc2c(Cl)cccc2Cl)n1`, -7.49%; in that of `CCn1cc(-c2cc(C(F)F)nc3sc(C(N)=O)c(N)c23)c(C)n1`, -3.39%.

On to `Cc1ccccc1NCc1nc2n(n1)CCCCC2`, for which the cytotoxicity at 70.5 h was found to be 0.338%.

As for `Cc1ccc(NCc2nc3n(n2)CCCCC3)c(C)c1`, the cytotoxicity at 70.5 h stood at 6.51%.

As for `Cc1ccc(C(=O)Cc2c(Cl)nc3n(C)c(=O)n(C)c(=O)n23)cc1`, the cytotoxicity at 70.5 h was -9.41%. The value for `Cn1c(=O)n(C)c2nc(Cl)c(CC(=O)c3ccc(F)cc3)n2c1=O` was 0.873%; that for `Cc1c(Cl)cccc1NCc1nc2n(n1)CCCCC2` was -7.61%. Consider `Cc1ccc(Cl)cc1NCc1nc2n(n1)CCCCC2`, for which the cytotoxicity at 70.5 h worked out at 7.47%.

For `CCOc1ccc(N2CCCN=C2NC(=O)c2cccc(OC)c2)cc1`, the cytotoxicity at 70.5 h was found to be 2.56%.

With `CCN1CC(Oc2ccc(Cl)cc2)=NC(SCC(=O)c2ccccc2)=N1`, the cytotoxicity at 70.5 h came out at 12.1%.

With `CN1CC(Oc2ccccc2)=NC(SCC(=O)Nc2ccc(Cl)cc2)=N1`, the cytotoxicity at 70.5 h amounted to 0.871%.

For `CCOC(=O)N1CCN(C(=O)c2cc(-c3ccc(Cl)cc3Cl)on2)CC1`, the cytotoxicity at 70.5 h stood at 0.435%. `Cc1nn(C)c2c(N3CCN(C(=O)C4CC4)CC3)ncnc12`: the cytotoxicity at 70.5 h is 16.2%. Turning to `CCC(=O)N1CCN(c2ncnc3c(C)nn(C)c23)CC1`, the cytotoxicity at 70.5 h worked out at 15.4%. In the case of `Cc1nc(N2CCN(C(=O)c3ccco3)CC2)c2c(n1)c(C)nn2C` it was -6.71%; in that of `Cc1nc(N2CCN(C(=O)C3CCCC3)CC2)c2c(n1)c(C)nn2C`, -0.908%. In the case of `Cc1nc(N2CCN(C(=O)c3ccncc3)CC2)c2c(n1)c(C)nn2C` it was 19.4%; in that of `CC(NC(=O)c1ccc(F)cc1F)c1cnn(C)c1` (stereo unspecified), -4.48%; in that of `Cc1nn(Cn2ccc(C(=O)N3CCCC(C)C3)n2)c(C)c1Cl` (stereo unspecified), -5.65%.

As for `CCN1CCCC1(C)c1nc(C)cc(N)n1` (stereo unspecified), the cytotoxicity at 70.5 h was -10.7%. `CCC(=O)N1CCC(Cc2cnc(Nc3cnccn3)cn2)CC1`: the cytotoxicity at 70.5 h was -11.1%.

In the case of `Cc1cncnc1C1CCN(CCO)CC1`, the cytotoxicity at 70.5 h is -7.32%. The value for `CCc1nnc(Nc2cc(C)nc(C3CCN(c4ncccn4)C3)n2)s1` (stereo unspecified) was 3.49%; that for `COc1ccccc1C1CNCCN1C(C)=O` (stereo unspecified) was -15.3%. In the case of `CN1CCCC1c1nccnc1-c1ccc(C(=O)O)cc1` (stereo unspecified) it was 11%; in that of `COc1ccccc1C1Cn2c(C)cnc2CN1Cc1c[nH]nc1C` (stereo unspecified), -12.2%. Consider `COc1cccc(S(=O)(=O)N2C[C@@H](O)[C@H](N(C)C)C2)c1`, for which the cytotoxicity at 70.5 h is -15.9%. Regarding `O=C(CN1CCNC1=O)NCc1ccc2sccc2c1`, the cytotoxicity at 70.5 h was -9.13%. The value for `CCN(CC)S(=O)(=O)N1C[C@@H](c2ccccc2)[C@H]2[C@H]1CCCCCN2C` was -1.32%; that for `Cn1nc(-c2ccc(F)cc2)cc1C(=O)NCCn1ccnc1` was -10.2%; that for `COc1ccc(-c2cc(C(=O)NCCCn3ccnc3C)n(C)n2)cc1` was -4.65%.

Take `Cc1noc(-c2c[nH]nc2C2CCCN2C(=O)c2ccccc2)c1C` (stereo unspecified): the cytotoxicity at 70.5 h was -4.46%. Regarding `Cn1nccc1CN1CCCC(COc2ccccc2F)C1` (stereo unspecified), the cytotoxicity at 70.5 h is -4.6%. Consider `Cc1cncc(C2CCCN2CC(N)=O)n1` (stereo unspecified), for which the cytotoxicity at 70.5 h was -2.96%. Take `CN(C)c1cccc(C2CCN(C3COCC3O)CC2)n1` (stereo unspecified): the cytotoxicity at 70.5 h is -4.45%.

Take `Cc1nccc(N2CCCC2CCNS(C)(=O)=O)n1` (stereo unspecified): the cytotoxicity at 70.5 h was -2.97%.

Regarding `O=C(c1cc2c(s1)CCC2)N1CCC(c2cnccn2)CC1`, the cytotoxicity at 70.5 h is -6.29%.

In the case of `NCc1cccc(-c2cccnc2C(=O)NCCN2CCOCC2)c1`, the cytotoxicity at 70.5 h was -9.72%.

With `O=C(c1ccc(-n2cccn2)nc1)N1CCCC(c2cnccn2)C1` (stereo unspecified), the cytotoxicity at 70.5 h is -4.09%. As for `COCCNc1nnc(-c2ccc(C)nc2)s1`, the cytotoxicity at 70.5 h turned out to be 1.91%. Consider `O=C(O)c1cncc(Cc2ccccc2F)c1`, for which the cytotoxicity at 70.5 h was -6.6%.

On to `O=C(O)c1cncc(Cc2ccc(F)cc2)c1`, for which the cytotoxicity at 70.5 h was -7.6%. The value for `O=C(O)c1ccc(Cc2cccc(F)c2)nc1` was -3.84%. The value for `O=C(O)c1cncc(Cc2cccc(F)c2)c1` was -7.96%; that for `CNC(=O)C1(C)CCCN1Cc1cnn(C)c1C` (stereo unspecified) was -8.11%. As to `CNC(=O)c1cccc(CC2COCCN(Cc3ccsc3)C2)n1` (stereo unspecified), the cytotoxicity at 70.5 h was -6.49%. The value for `Fc1cccc(CN2CCC(c3noc(-c4cnccn4)n3)CC2)c1F` was -0.815%. The value for `CC(=O)N1Cc2ccccc2OC2(CCN(C(=O)C3CC3)CC2)C1` was 25.4%; that for `Cn1c(C(=O)NC(Cc2ccsc2)c2cccnc2)cc(=O)n(C)c1=O` (stereo unspecified) was -0.464%. In the case of `Cc1csc(C(Cc2ccsc2)NC(=O)c2cc(=O)n(C)c(=O)n2C)n1` (stereo unspecified) it was -4.94%; in that of `COc1cc2cc3c(nc2cc1OC)OCCN(CC1CC1)C3`, -2.88%.

As to `COc1cc2cc3c(nc2cc1OC)OCCN(Cc1ccco1)C3`, the cytotoxicity at 70.5 h stood at 8.51%. As to `COc1ccc(-c2cc3cccn(CC(=O)N4CCOCC4)c-3n2)cc1`, the cytotoxicity at 70.5 h is 10.5%.

Regarding `COc1cccc(CNCc2cccnc2)c1`, the cytotoxicity at 70.5 h stood at 9.83%. In the case of `Cc1cccc(N2CCCC2c2nc(C)ncc2CN(C)C)n1` (stereo unspecified) it was -4.92%; in that of `Cc1ccc(N(C)[C@@H]2CC[C@@H]3CN(C(=O)CC4CCOCC4)C[C@@H]32)nn1`, -7.61%. The value for `NCc1cccc(-c2cccnc2C(=O)NCCN2CCCC2)c1` was -8.26%. With `COCCN1CCCC(Cc2cnc(-c3c(C)nn(C)c3C)cn2)C1` (stereo unspecified), the cytotoxicity at 70.5 h was -5.51%.

`COCCN1CCCC(c2ncc(C(=O)N3CCOCC3)c(C)n2)C1` (stereo unspecified): the cytotoxicity at 70.5 h is 1.77%. With `CN1CCN(CC2(O)CCCN(C(=O)Cc3cccc(O)c3)CC2)CC1` (stereo unspecified), the cytotoxicity at 70.5 h was -12.4%. In the case of `COc1cccc(-c2cc(C3CCCNC3)ccn2)c1` (stereo unspecified), the cytotoxicity at 70.5 h worked out at 3.19%. The value for `CC(=O)N1CCC(C)(c2cc[nH]n2)CC1` was -3.17%. In the case of `Cc1ccccc1CC(=O)N1C[C@@H](O)[C@H](N2CCOCC2)C1`, the cytotoxicity at 70.5 h stood at 3.85%. In the case of `Cc1ccccc1CC(=O)N1C[C@@H](O)[C@H](N2CCN(C)CC2)C1` it was 0.191%; in that of `NC(=O)c1cnc(NCC(=O)NCc2ccccc2)c(Cl)c1`, -4.1%; in that of `Cc1noc(CCNC(=O)c2ccc(N(C)C)c(F)c2)n1`, -3.5%. The value for `Cc1csc(CCNC(=O)c2ccc(N(C)C)c(F)c2)n1` was 13.6%. In the case of `OCCCN1CCCC1c1cccc(Br)c1` (stereo unspecified) it was -4.27%; in that of `N#Cc1ccc(CS(=O)(=O)NC(=O)c2ccc(C#N)cc2)cc1`, -14.8%; in that of `N#Cc1ccc(S(=O)(=O)NC(=O)c2ccc3c(c2)COC3)cc1`, -4.81%. `CC(C)c1nnc(NC(=O)NCc2cccnc2NCCN(C)C)s1`: the cytotoxicity at 70.5 h turned out to be 4.5%.

`NC(=O)c1cnc(NC(=O)CCc2ccco2)c(Cl)c1`: the cytotoxicity at 70.5 h is -2.14%. In the case of `CC(NS(=O)(=O)CCCC#N)c1cccc(-n2cccn2)c1` (stereo unspecified) it was -10.5%. In the case of `CCc1ocnc1C(=O)N1CCN(c2nncc3ccccc23)CC1` it was -19.4%.

`O=C(C1CCOCC1)N(CCc1ccccc1)C1CCOC1` (stereo unspecified): the cytotoxicity at 70.5 h came out at 8.62%.

In the case of `Cc1n[nH]c(-c2ccc(NC(=O)C(C)N3CCN(C)CC3)cc2)n1` (stereo unspecified), the cytotoxicity at 70.5 h was 2.06%.

On to `Cc1nnc(NCc2ccc(SC(F)F)cc2)o1`, for which the cytotoxicity at 70.5 h is 14.2%. For the molecule `Cn1cc(C(NCCc2ccccn2)c2cccc(F)c2)cn1` (stereo unspecified), the cytotoxicity at 70.5 h was -5.84%.

As to `CSc1cc2c(cc1NC(=O)N(C)Cc1ccncc1)OCCO2`, the cytotoxicity at 70.5 h is -2.5%.

Consider `Cc1occc1C(=O)NCC(=O)N1CCCC(c2ccccc2)CC1` (stereo unspecified), for which the cytotoxicity at 70.5 h is -3.67%. The value for `COc1cc(C#N)ccc1OCCN1CCC(n2ccnc2)CC1` was -7.5%. In the case of `COc1ccc(-c2cc(C3CCCNC3)ccn2)cc1` (stereo unspecified) it was -12.4%; in that of `O=C(C1CCCC1)N1C[C@@H](c2ccsc2)[C@@H]2CN(C3CCCC3)CC[C@@H]21`, -8.32%; in that of `Oc1cc(C2CCNCC2)nc(-c2ccsc2)n1`, -4.35%.

Turning to `CC(C)(C)C(=O)N1C[C@H](c2ccsc2)[C@H]2CN(C3CCCC3)CC[C@H]21`, the cytotoxicity at 70.5 h was -4.45%. As for `CN(C)Cc1cc(C2CCCCN2S(=O)(=O)Cc2ccccc2)nn1C` (stereo unspecified), the cytotoxicity at 70.5 h was -14.1%.

In the case of `O=C(NC1CCCC1)c1cc(C2CCCNC2)n[nH]1` (stereo unspecified), the cytotoxicity at 70.5 h is -3.17%. For the molecule `O=C(NC1CCCC1)C1(Cc2cc(C3CCOC3)no2)CCNCC1` (stereo unspecified), the cytotoxicity at 70.5 h is -5%. In the case of `Cc1ccc(C2(CN3CCN(Cc4cncn4C)CC3)CC2)cc1` it was 12.6%; in that of `Cc1cc(Nc2ccccn2)nc(C2CCCN(CCO)C2)n1` (stereo unspecified), -8.92%. In the case of `CN1CCCC(c2cncc(C(=O)NCc3ccccc3Cl)n2)C1` (stereo unspecified) it was -7.68%.
